Reference: paper PMC12165799, “Antimicrobial peptide developed with machine learning sequence optimization targets drug resistant Staphylococcus aureus in mice” (The Journal of Clinical Investigation, 2025)

Experiments:
[1] = test system: S. aureus MW2; test: Cryo-electron microscopy; type: cell-based, Staphylococcus aureus; conditions: 80 μg/mL, 60 minutes
Experimental: 506 containing 50 µl BacTiter-Glo reagent (Promega, WI, USA) and measured plate luminescence as
507 previously described (18) after 5 min of incubation at room temperature.
509 Cryo-electron microscopy (cryo-EM)
510 We statically treated 10 ml of an exponential-phase S. aureus MW2 culture (OD600 = 0.4,
For imaging, we vitrified the
512 bacteria cells using Leica EM-GP2® plunger (Leica Microsystems, Wetzlar, Germany) on R2×2
513 Quantifoil® carbon holey film (Micro Tools GmbH, Jena, Germany) grids as previously described
514 (19). Briefly, we applied a 4 µl of bacterial suspensions to the grids pre-cleaned in a Gatan Solarus
515 950 plasma cleaner (Gatan, Inc, USA), blotted with filter paper, and plunged into liquid ethane.
516 We stored the frozen grids under liquid nitrogen until used for microscopy. We then transferred
517 the grids into a JEM 2200FS electron microscope (JEOL Ltd, Akishima, Japan) operating at 200
518 keV and equipped with a field emission gun, in-column electron energy filter (omega type) and a
519 DE20 direct electron detector camera (Direct Electron Inc., CA, USA). We used a 20 eV energy
520 slit width during data acquisition. Total electron dose/image was ~15 electrons/Å2. Image pixel
521 size was 3.66 Å on the specimen scale.
523 Scanning electron microscopy (SEM)
524 We followed an established protocol with minor modification to perform SEM imaging of […]

[2] = test system: S. aureus MW2 established biofilm; test: Fluorescence microscopy of established biofilms, live/dead staining; type: cell-based, Staphylococcus aureus; conditions: 32 μg/mL, SYTO9 / propidium iodide
Experimental: 369 aureus MW2 (adjusted to 1 × 10^6 CFU/ml) in TSB medium (supplemented with 0.2% glucose)
370 from overnight grown cultures. We added 100 µl of bacterial culture to flat-bottomed 96-well
371 polystyrene microtiter plates (Cat no. 3595, Corning, NY, USA). We then incubated the plates at
372 37°C for 24 hours in static conditions to allow biofilm formation. After incubation, we carefully
373 pipetted out the TSB medium and washed the wells with PBS (Gibco, MD, USA) to remove
374 loosely attached planktonic cells. We treated the established biofilms in each well with 10 µl of
375 serially diluted 10× peptide solution, followed by the addition of 90 μl TSB medium
376 (supplemented with 0.2% glucose). We incubated the plates for another 24 h at 37°C before
377 processing biomass and live-cell contents. We calculated the concentration of peptide that disrupts
378 50% of established biofilms (MBEC50).
380 Fluorescence microscopy of CIT-8-treated S. aureus MW2 established biofilms
381 We prepared exponential phase cultures of S. aureus MW2 and adjusted the bacterial count
382 to 1 × 10^6 CFU/ml in fresh TSB medium. To establish biofilms, we added 200 µl of the bacterial
383 culture to the chambers of Millicell EZ Slides (Millipore Sigma, MA, USA) and maintained them
384 at 37°C for 24 hours under static conditions (8). After incubation, we carefully removed the TSB […]
We calculated the percent hemolysis, […]

[3] = HPLC retention time on C18 reverse-phase column; type: physicochemical
Description: Table 1 Physical parameters and minimal inhibitory concentrations of citropin 1.1-derived peptides against S. aureus MW2 | column: rT^D (min)

[4] = test system: S. aureus MW2 membrane; test: Membrane depolarization, DiBAC4(3); type: cell-based, Staphylococcus aureus; conditions: S. aureus MW2, 32 μg/mL
Experimental: 466 Membrane depolarization
467 We measured bacterial membrane potential using an established protocol with minor
468 modifications (9). We prepared an exponential phase culture of S. aureus MW2 in fresh TSB
469 medium, washed the culture two times in PBS, and resuspended it in a double volume of PBS. To
470 energize the bacterial cells, we added 25 mM of glucose for 15 mins at 37°C, followed by 500 nM
471 of DiBAC4(3) (bis-(1,3-dibutylbarbituric acid) trimethine oxonol) (Thermo Fisher Scientific, ON,
472 Canada). DiBAC4(3) is a potential-sensitive probe that enters depolarized cells, binds to
474 this bacterial culture per well in a black, clear bottomed 96-well plate (Cat. no. 3904, Corning,
475 NY, USA) and monitored the fluorescence using a SpectraMax i3x (Molecular Devices, CA, USA)
476 for 20 min, with excitation at 485 nm and emission at 520 nm, until the baseline stabilized. Then
477 we added 10 µl of serially diluted peptide solutions and recorded the fluorescence for another 40
478 min. We included triton X-100 (1%) as a positive control.

## H-GLFKVIKKLLKVI-NH2 [CIT-8]
[1]
  Cryo-EM appearance of treated cells: membrane disruption and perturbation
[2]
  Live/dead staining of established biofilm: high proportion of dead cells
[3]
  rT (HPLC retention time): 22.465 min
[4]
  Membrane depolarization, DIBAC4(3) fluorescence: rapid increase in DIBAC4(3) fluorescence
